The record followed here is ChEMBL document CHEMBL4229538, “Design, synthesis and structure-activity relationship of diaryl-ureas with novel isoxazol[3,4-b]pyridine-3-amino-structure as multi-target inhibitors against receptor tyrosine kinase” (Bioorg Med Chem, 2018).

Test [1] deals with HUVEC. Description: Antiproliferative activity against HUVEC after 72 hrs by cell titer glo-based fluorescence assay. To be noted: Homo sapiens.
Test [2] concerns MCF7. The test can be described thus: Antiproliferative activity against human MCF7 cells after 72 hrs by cell titer glo-based fluorescence assay. To be noted: MCF7, 72 h. On the technique in general: Cellular ATP, detected with luciferase, serves as a proxy for viable cell number.
The target in test [3] is Platelet-derived growth factor receptor beta (Homo sapiens, UniProt P09619). The test can be described thus: Inhibition of human PDGFRbeta using biotin labeled substrate after 1 hr by HTFR assay.
Test [4] concerns MV4-11. Description: Antiproliferative activity against human MV4-11 cells after 72 hrs by cell titer glo-based fluorescence assay. To be noted: MV4-11, 72 h.
The target of test [5] is Vascular endothelial growth factor receptor 2 (Homo sapiens, UniProt P35968).
Description: Inhibition of human KDR using biotin labeled substrate after 1 hr by HTFR assay
Test [6] deals with T1, Receptor-type tyrosine-protein kinase FLT3 (Homo sapiens, UniProt P36888).
T1 sequence (P36888 whole entry): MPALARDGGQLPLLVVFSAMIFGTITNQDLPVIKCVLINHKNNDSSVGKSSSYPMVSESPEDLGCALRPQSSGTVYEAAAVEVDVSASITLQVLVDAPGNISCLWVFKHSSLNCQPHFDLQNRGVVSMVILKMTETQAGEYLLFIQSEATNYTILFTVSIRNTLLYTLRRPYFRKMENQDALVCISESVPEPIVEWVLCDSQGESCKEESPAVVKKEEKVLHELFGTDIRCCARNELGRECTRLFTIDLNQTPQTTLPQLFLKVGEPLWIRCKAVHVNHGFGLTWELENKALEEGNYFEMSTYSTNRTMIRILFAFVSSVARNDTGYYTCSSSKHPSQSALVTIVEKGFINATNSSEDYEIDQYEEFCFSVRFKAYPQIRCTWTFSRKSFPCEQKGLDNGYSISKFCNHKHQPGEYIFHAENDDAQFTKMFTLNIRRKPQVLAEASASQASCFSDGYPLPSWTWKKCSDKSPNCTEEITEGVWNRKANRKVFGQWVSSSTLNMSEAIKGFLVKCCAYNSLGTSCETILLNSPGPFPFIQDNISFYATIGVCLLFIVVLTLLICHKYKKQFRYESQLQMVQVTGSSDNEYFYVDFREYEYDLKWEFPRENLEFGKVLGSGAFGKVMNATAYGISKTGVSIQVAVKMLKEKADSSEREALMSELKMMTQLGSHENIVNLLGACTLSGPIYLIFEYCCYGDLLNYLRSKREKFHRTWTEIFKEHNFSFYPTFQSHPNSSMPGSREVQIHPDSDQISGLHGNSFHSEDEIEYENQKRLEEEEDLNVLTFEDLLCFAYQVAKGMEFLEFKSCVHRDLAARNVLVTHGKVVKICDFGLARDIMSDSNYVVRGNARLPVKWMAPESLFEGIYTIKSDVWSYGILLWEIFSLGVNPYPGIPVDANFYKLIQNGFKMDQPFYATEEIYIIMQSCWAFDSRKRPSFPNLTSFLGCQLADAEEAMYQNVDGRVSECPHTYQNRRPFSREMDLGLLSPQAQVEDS
Description: Inhibition of human FLT3 using biotin labeled substrate after 1 hr by HTFR assay

As a reminder, the IC50 is the concentration that gives 50% inhibition.

Chain of Vascular endothelial growth factor receptor 2 (P35968 whole entry): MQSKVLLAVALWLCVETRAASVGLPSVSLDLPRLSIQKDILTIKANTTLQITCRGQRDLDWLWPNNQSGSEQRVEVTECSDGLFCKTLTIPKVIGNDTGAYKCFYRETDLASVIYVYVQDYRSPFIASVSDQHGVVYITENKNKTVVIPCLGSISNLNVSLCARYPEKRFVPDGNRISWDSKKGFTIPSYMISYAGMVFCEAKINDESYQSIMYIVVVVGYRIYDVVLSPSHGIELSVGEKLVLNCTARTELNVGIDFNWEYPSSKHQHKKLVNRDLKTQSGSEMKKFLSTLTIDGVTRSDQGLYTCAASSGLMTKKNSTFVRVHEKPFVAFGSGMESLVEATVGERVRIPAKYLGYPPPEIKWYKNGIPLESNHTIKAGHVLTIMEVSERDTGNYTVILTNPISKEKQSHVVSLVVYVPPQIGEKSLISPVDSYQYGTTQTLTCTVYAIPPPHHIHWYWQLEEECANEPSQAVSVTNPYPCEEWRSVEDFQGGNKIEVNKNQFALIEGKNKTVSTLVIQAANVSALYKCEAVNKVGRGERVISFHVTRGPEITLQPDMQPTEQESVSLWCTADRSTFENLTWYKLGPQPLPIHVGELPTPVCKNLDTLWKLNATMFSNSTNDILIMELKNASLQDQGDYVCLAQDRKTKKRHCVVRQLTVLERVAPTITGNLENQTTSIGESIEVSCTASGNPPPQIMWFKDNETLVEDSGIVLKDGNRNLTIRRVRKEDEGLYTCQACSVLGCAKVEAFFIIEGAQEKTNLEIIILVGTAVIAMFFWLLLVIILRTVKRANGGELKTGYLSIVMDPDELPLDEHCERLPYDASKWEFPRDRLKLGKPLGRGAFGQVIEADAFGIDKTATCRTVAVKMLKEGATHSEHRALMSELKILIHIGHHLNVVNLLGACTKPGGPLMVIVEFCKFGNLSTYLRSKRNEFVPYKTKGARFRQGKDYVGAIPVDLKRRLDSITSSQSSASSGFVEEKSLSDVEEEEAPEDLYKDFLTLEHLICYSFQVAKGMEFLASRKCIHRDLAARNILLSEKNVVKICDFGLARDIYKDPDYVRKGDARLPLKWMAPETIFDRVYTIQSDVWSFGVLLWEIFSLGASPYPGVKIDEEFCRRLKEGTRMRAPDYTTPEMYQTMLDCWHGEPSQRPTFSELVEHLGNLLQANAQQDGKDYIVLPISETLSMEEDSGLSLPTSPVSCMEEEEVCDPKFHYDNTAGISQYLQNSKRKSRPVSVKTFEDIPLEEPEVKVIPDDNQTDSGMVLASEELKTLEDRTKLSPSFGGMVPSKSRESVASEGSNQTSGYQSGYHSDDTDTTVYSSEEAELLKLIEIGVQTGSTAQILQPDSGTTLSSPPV
Chain of Platelet-derived growth factor receptor beta (P09619 whole entry): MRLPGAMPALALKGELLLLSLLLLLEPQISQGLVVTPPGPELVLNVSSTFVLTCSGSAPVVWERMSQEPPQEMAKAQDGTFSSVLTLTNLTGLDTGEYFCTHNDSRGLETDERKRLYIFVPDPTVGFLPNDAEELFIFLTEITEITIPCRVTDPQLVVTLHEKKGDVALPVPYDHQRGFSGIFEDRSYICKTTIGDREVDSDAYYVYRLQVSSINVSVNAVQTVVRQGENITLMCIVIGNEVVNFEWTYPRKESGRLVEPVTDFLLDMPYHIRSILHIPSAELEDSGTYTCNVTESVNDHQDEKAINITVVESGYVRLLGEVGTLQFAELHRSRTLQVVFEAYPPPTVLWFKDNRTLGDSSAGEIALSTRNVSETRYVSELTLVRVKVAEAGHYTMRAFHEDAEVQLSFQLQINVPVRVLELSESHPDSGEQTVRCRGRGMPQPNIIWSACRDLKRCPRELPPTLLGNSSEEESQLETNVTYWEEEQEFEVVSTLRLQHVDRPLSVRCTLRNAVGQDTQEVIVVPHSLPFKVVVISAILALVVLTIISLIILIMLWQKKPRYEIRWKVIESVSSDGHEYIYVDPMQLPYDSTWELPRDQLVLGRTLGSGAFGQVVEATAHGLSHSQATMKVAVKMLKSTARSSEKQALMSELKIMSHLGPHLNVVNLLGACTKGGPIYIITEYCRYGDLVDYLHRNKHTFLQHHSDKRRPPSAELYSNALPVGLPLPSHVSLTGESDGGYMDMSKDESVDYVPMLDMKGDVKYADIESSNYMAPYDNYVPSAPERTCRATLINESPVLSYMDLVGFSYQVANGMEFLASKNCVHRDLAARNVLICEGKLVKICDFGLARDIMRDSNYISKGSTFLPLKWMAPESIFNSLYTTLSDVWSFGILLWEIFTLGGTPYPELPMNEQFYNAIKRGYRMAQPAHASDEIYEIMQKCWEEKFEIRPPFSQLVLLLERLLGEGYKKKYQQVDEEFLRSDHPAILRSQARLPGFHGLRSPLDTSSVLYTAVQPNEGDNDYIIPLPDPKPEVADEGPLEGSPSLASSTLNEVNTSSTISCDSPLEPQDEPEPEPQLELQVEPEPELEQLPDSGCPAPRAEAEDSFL

Regarding `Cc1cc(-c2ccc(NC(=O)Nc3cccc(Cl)c3)cc2)c2c(N)onc2n1`, the IC50 turned out to be 15.2 µM in test [1], 39.5 µM in test [2], 0.04 µM in test [3] (read-out: IC50) and 0.54 µM in test [4].
On to `Cc1cccc(NC(=O)Nc2ccc(-c3cc(-c4ccccc4)nc4noc(N)c34)cc2)c1`, for which the IC50 in test [3] (read-out: IC50) worked out at 1.23 µM.
The same measure, in the same setting: the same measure for `C=C(CN1CCOCC1)C(=O)Nc1ccc(NC(=O)Nc2ccc(-c3cc(C)nc4noc(N)c34)cc2)cc1C`: 0.51 µM.
Consider `COc1ccc(NC(=O)Nc2ccc(-c3cc(-c4ccccc4)nc4noc(N)c34)cc2)cc1`, for which the half-inhibitory concentration (IC50) entry in test [3] and in test [5] was “Not Active” in each case.
On to `C/C=C\C(=O)Nc1ccc(NC(=O)Nc2ccc(-c3cc(C)nc4noc(N)c34)cc2)cc1C`, for which the half-inhibitory concentration (IC50) entry in test [3] and in test [5] was “Not Active” throughout.
In the case of `Cc1cc(-c2ccc(NC(=O)Nc3cccc(C(F)(F)F)c3)cc2)c2c(N)onc2n1`, the IC50 in test [1] was 7.95 µM; in test [2], 37.4 µM; in test [3] (read-out: IC50), 0.02 µM; in test [4], 0.61 µM.
On to `Nc1onc2nc(-c3ccccc3)cc(-c3ccc(NC(=O)Nc4cccc(Cl)c4)cc3)c12`, for which, in test [3] (read-out: IC50), the IC50 turned out to be 2.23 µM.
Same read-out and setting: the same measure for `Nc1onc2nc(-c3ccccc3)cc(-c3ccc(NC(=O)Nc4ccc(Cl)c(C(F)(F)F)c4)cc3)c12`: 0.29 µM.
With `Cc1cccc(NC(=O)Nc2ccc(-c3cc(C)nc4noc(N)c34)cc2)c1`, the IC50 in test [1] stood at 11.7 µM; in test [2], 10.5 µM; in test [3] (read-out: IC50), 0.008 µM; in test [4], 0.12 µM.
In the case of `Nc1onc2nc(-c3ccccc3)cc(-c3ccc(NC(=O)Nc4cccc(F)c4)cc3)c12`, the half-maximal inhibitory concentration (IC50) in test [3] (read-out: IC50) is 3.25 µM.
`C/C=C\C(=O)Nc1ccc(NC(=O)Nc2ccc(-c3cc(C)nc4noc(N)c34)cc2)cc1`: the IC50 entry in test [3] and in test [5] was “Not Active” in each case.
In the case of `Nc1onc2nc(-c3ccccc3)cc(-c3ccc(NC(=O)Nc4ccc(F)cc4)cc3)c12`, the IC50 in test [3] (read-out: IC50) is 3.78 µM.
Take `Cc1ccc(NC(=O)Nc2ccc(-c3cc(-c4ccccc4)nc4noc(N)c34)cc2)cc1`: the concentration for half-maximal inhibition (IC50) in test [3] (read-out: IC50) is 1.26 µM; in test [5] it was “Not Active”.
In the case of `Nc1onc2nc(-c3ccccc3)cc(-c3ccc(NC(=O)Nc4ccccc4F)cc3)c12`, the IC50 result in test [6], in test [3] and in test [5] was “Not Active” in each case.
For the molecule `Cc1cc(-c2ccc(NC(=O)Nc3ccc(Cl)c(C(F)(F)F)c3)cc2)c2c(N)onc2n1`, the half-inhibitory concentration (IC50) in test [1] is 12.6 µM; in test [2] it was 28.8 µM; in test [3] (read-out: IC50), 0.02 µM; in test [4] it was 0.34 µM.
Turning to `C=CC(=O)Nc1ccc(NC(=O)Nc2ccc(-c3cc(-c4ccccc4)nc4noc(N)c34)cc2)cc1`, the half-maximal inhibitory concentration (IC50) entry in test [6], in test [3] and in test [5] was “Not Active” in each case.
Turning to `Nc1onc2nc(-c3ccccc3)cc(-c3ccc(NC(=O)Nc4ccccc4)cc3)c12`, the values for the IC50 in test [3] (read-out: IC50) and in test [5] were 3.52 µM and “Not Active”, respectively.
On to `Cc1cc(-c2ccc(NC(=O)Nc3ccccc3Cl)cc2)c2c(N)onc2n1`, for which, in test [3] (read-out: IC50), the half-inhibitory concentration (IC50) turned out to be 0.82 µM.
Consider `Cc1ccc(F)c(NC(=O)Nc2ccc(-c3cccc4[nH]nc(N)c34)cc2)c1` [LINIFANIB], for which the IC50 came out at 40.1 µM in test [1], 17 µM in test [2] and 0.69 µM in test [4].
